Experimental data published in patent publication US20190192697A1, “CHEMICAL PROBES OF LYSYL OXIDASK-LIKE 2 AND USES THEREOF” (PHARMAKEA, INC., priority 2016, published 2019).
Where a name gives a salt, the structure may show the parent alone.

Legend:
LOXL2 [1] = molecular target: T1, LOXL2 (Homo sapiens, UniProt Q9Y4K0); experiment: Human LOXL2 amine oxidase activity assay (Amplex Red); format: biochemical; set-up: expressed in transfected cells; host or cells: CHO cells stably expressing human LOXL2; 10-20x concentrated conditioned media; settings: concentrated conditioned media from CHO cells expressing human LOXL2; 2 h at 37° C. pre-incubation
T1 sequence (Q9Y4K0 26-774): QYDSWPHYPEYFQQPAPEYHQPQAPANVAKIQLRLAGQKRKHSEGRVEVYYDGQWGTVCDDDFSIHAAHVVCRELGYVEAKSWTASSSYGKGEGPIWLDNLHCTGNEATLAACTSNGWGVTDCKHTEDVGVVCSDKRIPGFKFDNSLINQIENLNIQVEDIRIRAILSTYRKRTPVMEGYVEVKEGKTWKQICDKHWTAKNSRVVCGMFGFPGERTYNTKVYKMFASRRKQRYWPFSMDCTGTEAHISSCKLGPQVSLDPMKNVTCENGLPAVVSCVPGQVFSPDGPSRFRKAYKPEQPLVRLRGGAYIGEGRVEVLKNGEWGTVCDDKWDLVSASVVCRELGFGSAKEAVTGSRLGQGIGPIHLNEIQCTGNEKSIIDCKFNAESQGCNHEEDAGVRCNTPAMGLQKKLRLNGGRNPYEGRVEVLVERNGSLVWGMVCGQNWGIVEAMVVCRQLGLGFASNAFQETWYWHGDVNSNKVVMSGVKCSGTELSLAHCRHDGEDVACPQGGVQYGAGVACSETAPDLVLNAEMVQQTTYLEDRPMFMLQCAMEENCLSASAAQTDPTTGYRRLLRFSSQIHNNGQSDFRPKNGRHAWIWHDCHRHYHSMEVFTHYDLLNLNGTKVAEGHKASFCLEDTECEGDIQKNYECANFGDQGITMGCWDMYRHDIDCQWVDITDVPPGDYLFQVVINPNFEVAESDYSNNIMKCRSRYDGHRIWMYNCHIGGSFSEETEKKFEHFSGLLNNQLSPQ
Protocol: LOXL2 amine oxidase activity is evaluated by measuring Amplex Red fluorescence using 10-20× concentrated conditioned media from CHO cells stably expressing human LOXL2. To assay for amine oxidase activity, 10 μL of the concentrated conditioned media is incubated with 2 μL of test compound in DMSO and 73 μL Assay Buffer (50 mM Borate Buffer, pH8) for 2 h at 37° C. After the 2 h incubation, 5 μL of 10 mM 1,5-diaminopentane (DAP) diluted in Assay Buffer and 10 μL of Amplex Red Mix (8.5 μL Assay Buffer+0.5 μL of 10 mM Amplex Red+1 μL of 500 U/mL Horseradish Peroxidase) are added and the plate mixed and immediately placed on the FlexStaion for fluorescence measurements. Fluorescence is read in kinetic mode every 2 min for 1 hour at excitation=544 nm and emission=590 nm. The amine oxidase activity is calculated from the slope of the linear portion of the curve.

LOXL2 [2] = molecular target: T1, LOXL2; experiment: Erenna-based fluorescence magnetic bead assay for free/unbound LOXL2; format: binding; settings: 34 nM Compound 1-2, 15 hours at room temperature
Protocol: Following the incubation, 10 μg of streptavidin-coated magnetic microparticles (MPs) are added to each well and incubated for 30 min-2 hours at room temperature with shaking. The MPs are washed once using magnetic separation and 20 μL of a fluorescently conjugated anti-LOXL2 antibody is added to each well (for example, R&D Systems anti-LOXL2 Goat IgG polyclonal antibody conjugated to AlexaFluor 647) and incubated for 30 min-2 hours at room temperature with shaking. The MPs are washed four times with magnetic separation and transferred to a new plate. All liquid is aspirated from the plate and elution buffer added and incubated for 10 minutes at room temperature with shaking. The eluate is transferred to a 384 well assay plate containing neutralization buffer, sealed and read on Erenna®.

[3] = Compound tissue distribution studies with 18F-PET imaging; format: in vivo; settings: 30-50 μCi intravenously, PET imaged 90-120 minutes, naïve or bleomycin-instilled mice
Protocol: In these studies, naïve or bleomycin-instilled mice were injected with 30-50 μCi of Compound 1-13 (^18F-labeled) intravenously and were PET imaged for 90-120 minutes following injection of the radiolabel. These animals were then sacrificed at 2.5 hours post-administration of the ^18F-labeled Compound 1-13 and tissues and blood were analyzed by scintillation counting to determine concentration of radioactivity remaining.
To determine specific binding, a subset of mice were administered a blocking dose of Compound 1-13a or vehicle (delivered at 60 mg/kg PO) at a suitable time point prior to the PET-ligand injection, such as 2.5-4 h prior.

Structure (SMILES) | IC50 (LOXL2 [1]) | signal of free/unbound LOXL2 versus LOXL2 concentration (LOXL2 [2]) | tissue distribution of the 18F-labeled ligand [3]
Cc1cc(=O)oc2cc(NC(=O)c3cccc(Oc4cc(CN)cc(C(F)(F)F)n4)c3)ccc12 [Compound 1-5, 3-((4-(Aminomethyl)-6-(trifluoromethyl)pyridin-2-yl)oxy)-N-(4-methyl-2-oxo-2H-chromen-7-yl)benzamide hydrochloride] | < 300 nM | – | –
CN(C)c1cccc2c(S(=O)(=O)Nc3cccc(Oc4cc(CN)cc(C(F)(F)F)n4)c3)cccc12 [Compound 1-6, N-(3-((4-(Aminomethyl)-6-(trifluoromethyl)pyridin-2-yl)oxy)phenyl)-5-(dimethylamino)naphthalene-1-sulfonamide hydrochloride] | 300 to 1000 nM | – | –
NCc1cc(Oc2cccc(C(=O)N3C[C@@H](O)[C@H]([18F])C3)c2)nc(C(F)(F)F)c1 [Compound 1-13, (3-((4-(Aminomethyl)-6-(trifluoromethyl)pyridin-2-yl)oxy)phenyl)((3R,4R)-3-^18fluoro-4-hydroxypyrrolidin-1-yl)methanone hydrochloride] | – | – | Highest initial concentrations of ligand were observed in liver, kidney and lung
CC1(C)C(/C=C/C(=C/C=C2\N(CCCS(=O)(=O)O)c3ccc4c(S(=O)(=O)O)cc(S(=O)(=O)O)cc4c3C2(C)C)c2cccc(CCCCC(=O)NCCCCCCNC(=O)c3cccc(Oc4cc(CN)cc(C(F)(F)F)n4)c3)c2)=[N+](CCCS(=O)(=O)O)c2ccc3c(S(=O)(=O)O)cc(S(=O)(=O)O)cc3c21 [Compound 1-22, 3-(2-((1E,3Z,5Z)-3-(3-(5-((6-(3-((4-(Aminomethyl)-6-(trifluoromethyl)pyridin-2-yl)oxy)benzamido)hexyl)amino)-5-oxopentyl)phenyl)-5-(1,1-dimethyl-6,8-disulfo-3-(3-sulfopropyl)-1H-benzo[e]indol-2(3H)-ylidene)penta-1,3-dien-1-yl)-1,1-dimethyl-6,8-disulfo-1H-benzo[e]indol-3-ium-3-yl)propane-1-sulfonate trifluoroacetate] | > 1000 nM | – | –

Continued, in another order:

IC50 (LOXL2 [1]) | Structure (SMILES) | signal of free/unbound LOXL2 versus LOXL2 concentration (LOXL2 [2]) | tissue distribution of the 18F-labeled ligand [3]
< 300 nM | NCc1cc(Oc2cccc(C(=O)NCCCCCNC(=O)CCCC[C@@H]3SC[C@@H]4NC(=O)N[C@@H]43)c2)nc(C(F)(F)F)c1 [Compound 1-1, 3-((4-(Aminomethyl)-6-(trifluoromethyl)pyridin-2-yl)oxy)-N-(5-(5-((3aS,4S,6aR)-2-oxohexahydro-1H-thieno[3,4-d]imidazol-4-yl)pentanamido)pentyl)benzamide hydrochloride] | – | –
< 300 nM | Cl.NCc1cc(Oc2cccc(C(=O)NCCOCCOCCOCCOCCOCCOCCOCCOCCOCCOCCOCCNC(=O)CCCC[C@@H]3SC[C@@H]4NC(=O)N[C@@H]43)c2)nc(C(F)(F)F)c1 [Compound 1-2, 3-((4-(Aminomethyl)-6-(trifluoromethyl)pyridin-2-yl)oxy)-N-(37-oxo-41-((3aS,4S,6aR)-2-oxohexahydro-1H-thieno[3,4-d]imidazol-4-yl)-3,6,9,12,15,18,21,24,27,30,33-undecaoxa-36-azahentetracontyl)benzamide hydrochloride] | linear increase in signal of free/unbound LOXL2 up to 500 pg/mL | –
< 300 nM | CN1/C(=C/C=C/C2=[N+](CCCCCC(=O)NCCCn3cc(CCCCNC(=O)c4cccc(Oc5cc(CN)cc(C(F)(F)F)n5)c4)nn3)c3ccccc3C2(C)C)C(C)(C)c2ccccc21 [Compound 1-3, 1-(6-((3-(4-(4-(3-((4-(Aminomethyl)-6-(trifluoromethyl)pyridin-2-yl)oxy)benzamido)butyl)-1H-1,2,3-triazol-1-yl)propyl)amino)-6-oxohexyl)-3,3-dimethyl-2-((1E,3E)-3-(1,3,3-trimethylindolin-2-ylidene)prop-1-en-1-yl)-3H-indol-1-ium chloride hydrochloride] | – | –
< 300 nM | CN1/C(=C/C=C/C=C/C2=[N+](CCCCCC(=O)NCCCn3cc(CCCCNC(=O)c4cccc(Oc5cc(CN)cc(C(F)(F)F)n5)c4)nn3)c3ccccc3C2(C)C)C(C)(C)c2ccccc21 [Compound 1-4, 1-(6-((3-(4-(4-(3-((4-(Aminomethyl)-6-(trifluoromethyl)pyridin-2-yl)oxy)benzamido)butyl)-1H-1,2,3-triazol-1-yl)propyl)amino)-6-oxohexyl)-3,3-dimethyl-2-((1E,3E,5E)-5-(1,3,3-trimethylindolin-2-ylidene)penta-1,3-dien-1-yl)-3H-indol-1-ium chloride hydrochloride] | – | –
< 300 nM | NCc1cc(Oc2cccc(C(=O)NCCOCCOCCOCCNC(=O)CCCC[C@@H]3SC[C@@H]4NC(=O)N[C@@H]43)c2)nc(C(F)(F)F)c1 [Compound 1-19, 3-((4-(Aminomethyl)-6-(trifluoromethyl)pyridin-2-yl)oxy)-N-(13-oxo-17-((3aS,4S,6aR)-2-oxohexahydro-1H-thieno[3,4-d]imidazol-4-yl)-3,6,9-trioxa-12-azaheptadecyl)benzamide hydrochloride] | – | –
< 300 nM | NCc1cc(Oc2cccc(C(=O)NCCNC(=O)CCCCCNC(=O)CCCCCNC(=O)CCCC[C@@H]3SC[C@@H]4NC(=O)N[C@@H]43)c2)nc(C(F)(F)F)c1 [Compound 1-20, 3-((4-(Aminomethyl)-6-(trifluoromethyl)pyridin-2-yl)oxy)-N-(2-(6-(6-(5-((3aS,4S,6aR)-2-oxohexahydro-1H-thieno[3,4-d]imidazol-4-yl)pentanamido)hexanamido)hexanamido)ethyl)benzamide hydrochloride] | – | –
